These results are taken from patent US20110053996A1, “Use of phenyltriazoles for controlling insects and spider mites by watering, droplet application or dip application or by treating seed” (Bayer CropScience AG, priority 2009, published 2011).

In one experiment the test system is Liriomyza trifolii. Nature of the experiment: Liriomyza trifolii test on bush beans; drench application. Type of experiment: in vivo. To be noted: bush bean plants, 0.5 mg of ai/plant, 14 days after infestation. On the procedure: (§1) To produce a suitable preparation of active compound, 1 part by weight of active compound is mixed with the stated amounts of solvent and emulsifier, and the concentrate is diluted with water to the desired concentration.
Bush bean plants (Phaseolus vulgaris) are watered with the respective product solution. The stated concentration refers to the amount of active compound per plant. After about 1 week, the treated plants are infested with the leaf-mining fly (Liriomyza trifolii).
After 2 weeks, the effect in % is determined. 100% means that all of the leaf-mining flies have been killed; 0% means that none of the leaf-mining flies have been killed.

A further experiment deals with Tetranychus urticae. The experiment in a line: Tetranychus urticae test on bush beans; drench application. It counts as in vivo. To be noted: bush bean plants, 0.25 mg of ai/plant, 14 days after infestation. On the procedure: as §1
Bush bean plants (Phaseolus vulgaris) are watered with the respective product solution. The stated concentration refers to the amount of active compound per plant. After about 1 week, the treated plants are infested with the greenhouse red spider mite (Tetranychus urticae).
After 2 weeks, the effect in % is determined. 100% means that all of the spider mites have been killed; 0% means that none of the spider mites have been killed.

As for `Cc1cc(F)c(-n2nc(C(F)(F)F)nc2N)cc1[S+]([O-])CC(F)(F)F` (centres unmarked) [(I-4)], the “% Activity (according to Abbott)” value in the experiment on Liriomyza trifolii and with Tetranychus urticae was 100% in each case.
